Results published in PubChem BioAssay AID330 (DTP/NCI, 2004).
Values joined by “and” are separate entries in the source; they are usually repeats but may differ in a detail not shown here. Identical values can stand only once. Toxic doses and inconclusive results are not listed.

Tested on: P388 leukemia ip, CD2F1 mice, survival T/C
Assay: NCI In Vivo Anticancer Drug Screen. Data for tumor model P388 Leukemia (intraperitoneal) in CD2F1 (CDF1) mice
Conditions: endpoint: median survival time, higher = longer survival
Summary of the method: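 Mice carrying the transplanted tumor received test compound or vehicle. Survival was recorded in each group, and the value is the treated-group measurement divided by that of the vehicle-treated control group.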

[1] = dose: 50.0 mg/kg/injection, schedule: Q01DX005 (ip), vehicle: saline with Tween-80
[2] = dose: 100.0 mg/kg/injection, schedule: Q01DX005 (ip), vehicle: saline with Tween-80
[3] = dose: 200.0 mg/kg/injection, schedule: Q01DX005 (ip), vehicle: saline with Tween-80
[4] = dose: 50.0 mg/kg/injection, schedule: Q01DX009 (ip), vehicle: Klucel (hydroxypropylcellulose) (HPC)
[5] = dose: 100.0 mg/kg/injection, schedule: Q01DX009 (ip), vehicle: Klucel (hydroxypropylcellulose) (HPC)

For `C/C(CCl)=N\NC1=NC2(CCCCC2)P(=O)(NNc2ncccn2)S1` (stereo not given), the T/C (dose: 37.5 mg/kg/injection, schedule: Q01DX005 (ip), vehicle: Klucel (hydroxypropylcellulose) (HPC)) was 103 % of control, the T/C (dose: 60.0 mg/kg/injection, schedule: Q01DX005 (ip), vehicle: Klucel (hydroxypropylcellulose) (HPC)) was 102 % of control and the T/C (dose: 75.0 mg/kg/injection, schedule: Q01DX005 (ip), vehicle: Klucel (hydroxypropylcellulose) (HPC)) was 102 % of control. The T/C (dose: 120.0 mg/kg/injection, schedule: Q01DX005 (ip), vehicle: Klucel (hydroxypropylcellulose) (HPC)) was 100 % of control.
`CC(=O)OCC12CCC(C)=CC1OC1C(=O)CC2(C)C12CO2` (stereo not given) was tested, and the T/C (dose: 0.5 mg/kg/injection, schedule: Q01DX009 (ip), vehicle: saline) was 100 % of control, the T/C (dose: 1.0 mg/kg/injection, schedule: Q01DX009 (ip), vehicle: saline) was 101 % of control and the T/C (dose: 2.0 mg/kg/injection, schedule: Q01DX009 (ip), vehicle: saline) was 94 % of control. For the same molecule, the T/C (dose: 4.0 mg/kg/injection, schedule: Q01DX009 (ip), vehicle: saline) was 110 % of control.
`C=CCOc1cc2c(cc1C(CC)c1ccc(OCc3ccccc3)cc1)OCO2` (stereo not given) was tested, and the T/C [1] was 102 % of control, the T/C [2] was 100 % of control and the T/C [3] was 95 % of control.
For `O=C(NNC(=O)c1ccncc1)Nc1cccc(Cl)c1`, the T/C [4] was 95 % of control and the T/C [5] was 96 % of control.
`CN(C)c1ccc2c(N(C)C)cc(N(C)C)[n+](C)c2c1` was tested, and the T/C (dose: 0.78 mg/kg/injection, schedule: Q01DX009 (ip), vehicle: distilled water + Tween-80 + alcohol) was 106 % of control and the T/C (dose: 1.56 mg/kg/injection, schedule: Q01DX009 (ip), vehicle: distilled water + Tween-80 + alcohol) was 115 % of control.
With `Cc1ccc(-c2cc3cc4c(cc3[nH]2)Sc2ccccc2O4)cc1` the T/C (dose: 100.0 mg/kg/injection, schedule: Q01DX001 (ip), vehicle: Klucel (hydroxypropylcellulose) (HPC)) was 98 % of control and the T/C (dose: 200.0 mg/kg/injection, schedule: Q01DX001 (ip), vehicle: Klucel (hydroxypropylcellulose) (HPC)) was 89 % of control.
`CCc1ccccc1NC(=O)NCC(C)C` was tested, and the T/C [4] was 105 % of control, the T/C [5] was 97 % of control and the T/C (dose: 200.0 mg/kg/injection, schedule: Q01DX009 (ip), vehicle: Klucel (hydroxypropylcellulose) (HPC)) was 105 % of control.
`N=C(N)c1ccc(/C=C\C=C/c2cc3cc(C(=N)N)ccc3o2)cc1` was tested, and the T/C (dose: 1.56 mg/kg/injection, schedule: Q04DX003 (ip), vehicle: saline with Tween-80) was 107 % of control, the T/C (dose: 3.12 mg/kg/injection, schedule: Q04DX003 (ip), vehicle: saline with Tween-80) was 122 % of control and the T/C (dose: 3.12 mg/kg/injection, schedule: Q04DX003 (ip), vehicle: saline) was 115 % of control. For the same molecule, the T/C (dose: 12.5 mg/kg/injection, schedule: Q04DX003 (ip), vehicle: saline) was 124 % of control.
With `O=C1c2ccccc2C(=O)N1CC#CC[N+]1([O-])CCc2ccccc2C1` (stereo not given) the T/C (dose: 12.5 mg/kg/injection, schedule: Q01DX005 (ip), vehicle: Klucel (hydroxypropylcellulose) (HPC)) was 103 % of control, the T/C (dose: 25.0 mg/kg/injection, schedule: Q01DX005 (ip), vehicle: Klucel (hydroxypropylcellulose) (HPC)) was 102 % of control and the T/C (dose: 50.0 mg/kg/injection, schedule: Q01DX005 (ip), vehicle: Klucel (hydroxypropylcellulose) (HPC)) was 103 % of control. The T/C (dose: 100.0 mg/kg/injection, schedule: Q01DX005 (ip), vehicle: Klucel (hydroxypropylcellulose) (HPC)) was 110 % of control.
For `[CH3][Sn]([CH3])([Cl])[CH2]CC[CH2][Sn]([Cl])([Cl])[Cl]`, the T/C (dose: 6.25 mg/kg/injection, schedule: Q01DX009 (ip), vehicle: saline) was 110 % of control and the T/C (dose: 12.5 mg/kg/injection, schedule: Q01DX009 (ip), vehicle: saline) was 99 % of control.
For `CC12CC3(C)CC(C(Cl)C(=O)O)(C1)CC(C(Cl)C(=O)O)(C2)C3` (stereo not given), the T/C (dose: 50.0 mg/kg/injection, schedule: Q01DX009 (ip), vehicle: saline with Tween-80) was 103 % of control, the T/C (dose: 100.0 mg/kg/injection, schedule: Q01DX009 (ip), vehicle: saline with Tween-80) was 100 % of control and the T/C (dose: 200.0 mg/kg/injection, schedule: Q01DX009 (ip), vehicle: saline with Tween-80) was 107 % of control.
`COc1cc2c(c(OC)c1O)-c1ccc(OC)c(=O)cc1[C@@H](NC(C)=O)CC2` was tested, and the T/C (dose: 10.0 mg/kg/injection, schedule: Q01DX009 (ip), vehicle: Klucel (hydroxypropylcellulose) (HPC)) was 150 % of control and 175 % of control.
For `N#Cc1[nH]cnc1O`, the T/C [1] was 103 % of control, the T/C [2] was 101 % of control and the T/C [3] was 112 % of control.
For `c1ccc(CC2NCCc3c2[nH]c2ccccc32)cc1` (stereo not given), the T/C [1] was 100 % of control, the T/C [2] was 99 % of control and the T/C [3] was 94 % of control.
